Assays:
GPR40 [1] = target: T1, GPR40 (Homo sapiens, UniProt O14842); assay: Cell-based aequorin assay (CHO cells stably expressing GPR40 and aequorin); design: expressed in transfected cells; host or cells: CHO cells stably transfected with GPR40 and aequorin; conditions: activation of human GPR40, CHO cells, 0.01% HSA
Procedure, shortened: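 CHO cells stably co-expressing GPR40 and aequorin, loaded with coelenterazine (1 ug/mL, 2 h, room temperature) in H/HBSS with 20 mM Hepes and 0.01% fatty acid-free HSA. Serially diluted compounds added; luminescence recorded over 20 s. EC50 from dose-response of maximum relative light units.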

GPR40 [2] = target: T1, GPR40; assay: Inositol phosphate accumulation assay (A9_GPR40 cells); type: cell-based; design: expressed in transfected cells; host or cells: CHO cells stably transfected with GPR40 and aequorin; conditions: inositol phosphate assay, A9_GPR40 cells, 1 hour; read-out: IP3 EC50
Procedure, shortened: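 A9 cells stably expressing GPR40 were labelled 16 h with 1 μCi/mL ^3H-inositol in inositol-free DMEM with dialysed FBS. Compounds in HBSS/10 mM LiCl with HSA were applied for 1 h at 37° C, then quenched with 20 mM formic acid. Accumulated [^3H] inositol phosphates were counted by SPA.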

T1 sequence (O14842 whole entry): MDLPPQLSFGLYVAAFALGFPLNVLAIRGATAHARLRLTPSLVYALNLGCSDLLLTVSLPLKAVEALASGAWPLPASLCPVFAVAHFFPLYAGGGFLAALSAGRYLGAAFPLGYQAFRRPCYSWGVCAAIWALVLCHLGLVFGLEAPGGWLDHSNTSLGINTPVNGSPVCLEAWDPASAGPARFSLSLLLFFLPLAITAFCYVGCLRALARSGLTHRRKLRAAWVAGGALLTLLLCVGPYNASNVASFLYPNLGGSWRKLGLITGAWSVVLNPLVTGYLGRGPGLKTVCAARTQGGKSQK

EC50 (GPR40 [1]) | EC50 (GPR40 [2]) | Structure (SMILES)
0.1 to 1 µM | 0.01 to 0.1 µM | CCCC(CC(=O)O)c1cccc(OCc2ccc(-c3cc(OC)ccc3F)c(C3CCCCCC3)c2)c1 (single isomer, unassigned) [Example 67.7, (3R)-3-(3-(((2-Cycloheptyl-2′-fluoro-5′-(methyloxy)-1,1′-biphenyl-4-yl)methyl)oxy)phenyl)hexanoic acid or (3S)-3-(3-(((2-cycloheptyl-2′-fluoro-5′-(methyloxy)-1,1′-biphenyl-4-yl)methyl)oxy)phenyl)hexanoic acid]
0.1 to 1 µM | < 0.01 µM | COc1ccc(F)c(-c2ccc(COc3cccc(C(CC(=O)O)C4CC4)c3)cc2C2=CCCCC2(C)C)c1 (single isomer, unassigned) [Example 66.10, (3S)-3-Cyclopropyl-3-(3-(((2-(6,6-dimethyl-1-cyclohexen-1-yl)-2′-fluoro-5′-(methyloxy)-1,1′-biphenyl-4-yl)methyl)oxy)phenyl)propanoic acid or (3R)-3-cyclopropyl-3-(3-(((2-(6,6-dimethyl-1-cyclohexen-1-yl)-2′-fluoro-5′-(methyloxy)-1,1′-biphenyl-4-yl)methyl)oxy)phenyl)propanoic acid]
0.1 to 1 µM | 0.01 to 0.1 µM | COc1ccc(F)c(-c2ccc(COc3cccc(C(CC(=O)O)CC4CC4)c3F)cc2C2=CCCC2(C)C)c1 (single isomer, unassigned) [Example 84.5, (3R)-4-Cyclopropyl-3-(3-(((2-(5,5-dimethyl-1-cyclopenten-1-yl)-2′-fluoro-5′-(methyloxy)-1,1′-biphenyl-4-yl)methyl)oxy)-2-fluorophenyl)butanoic acid or (3S)-4-cyclopropyl-3-(3-(((2-(5,5-dimethyl-1-cyclopenten-1-yl)-2′-fluoro-5′-(methyloxy)-1,1′-biphenyl-4-yl)methyl)oxy)-2-fluorophenyl)butanoic acid]
0.1 to 1 µM | 0.01 to 0.1 µM | COc1cc(-c2ccc(COc3cccc(C(CC(=O)O)C4CC4)c3)cc2C2=CCCC2(C)C)ccn1 (single isomer, unassigned) [Example 66.66, (3S)-3-(3-(3-(5,5-Dimethylcyclopent-1-enyl)-4-(2-methoxypyridin-4-yl)benzyloxy)phenyl)-3-cyclopropylpropanoic acid or (3R)-3-(3-(3-(5,5-dimethylcyclopent-1-enyl)-4-(2-methoxypyridin-4-yl)benzyloxy)phenyl)-3-cyclopropylpropanoic acid]
0.1 to 1 µM | < 0.01 µM | CCC(CC(=O)O)c1cc(F)cc(OCc2ccc(-c3cc(OC)ccc3F)c(C3CCCC3(C)C)c2)c1F (single isomer, unassigned) [Example 90.2]
0.1 to 1 µM | 0.1 to 1 µM | COc1ccc(F)c(-c2ccc(COc3cccc(CCC(=O)O)c3)cc2C(C)(C)C)c1 [Example 34, 3-(3-(((2-(1,1-Dimethylethyl)-2′-fluoro-5′-(methyloxy)-1,1′-biphenyl-4-yl)methyl)oxy)phenyl)propanoic acid]
0.1 to 1 µM | 0.1 to 1 µM | C[C@H](CC(=O)O)c1cccc(OCc2ccc(-c3cc(O)ccc3F)c(C(C)(C)C)c2)c1 (single isomer, unassigned) [Example 35, (3R)-3-(3-(((2-(1,1-Dimethylethyl)-2′-fluoro-5′-hydroxy-1,1′-biphenyl-4-yl)methyl)oxy)phenyl)butanoic acid or (3S)-3-(3-(((2-(1,1-dimethylethyl)-2′-fluoro-5′-hydroxy-1,1′-biphenyl-4-yl)methyl)oxy)phenyl)butanoic acid]
0.1 to 1 µM | < 0.01 µM | CCC(CC(=O)O)c1cc(F)cc(OCc2ccc(-c3cc(OC)ncc3F)c(C3CCCC3(C)C)c2)c1 (single isomer, unassigned) [Example 88.4]
0.1 to 1 µM | 0.01 to 0.1 µM | CCO[C@H](c1cc(COc2cccc([C@@H](CC(=O)O)C3CC3)c2F)ccc1-c1ccccc1F)C(C)(C)C (single isomer, unassigned) [Example 83.10]
0.1 to 1 µM | < 0.01 µM | COc1ccc(F)c(-c2cc(F)c(COc3cccc(C(CC(=O)O)CC4CC4)c3F)cc2C2CCCC2(C)C)c1 (single isomer, unassigned) [Example 84.4]
0.1 to 1 µM | 0.1 to 1 µM | CCCCCc1cc(COc2cccc(C(C)CC(=O)O)c2)ccc1-c1cc(OC)ccc1F (single isomer, unassigned) [Example 64.14, (3R)-3-(3-(((2′-Fluoro-5′-(methyloxy)-2-pentyl-1,1′-biphenyl-4-yl)methyl)oxy)phenyl)butanoic acid or (3S)-3-(3-(((2′-fluoro-5′-(methyloxy)-2-pentyl-1,1′-biphenyl-4-yl)methyl)oxy)phenyl)butanoic acid]
0.1 to 1 µM | 0.01 to 0.1 µM | COc1ccc(F)c(-c2ccc(COc3cccc([C@@H](CC(=O)O)C4CC4)c3)cc2[C@H]2CCC[C@@H]2C)c1 (single isomer, unassigned) [Example 66.56]
0.1 to 1 µM | 0.01 to 0.1 µM | COc1ccc(F)c(-c2ccc(COc3cccc(C(C)CC(=O)O)c3)cc2C2=CCC(C(C)(C)C)CC2)c1 (single isomer, unassigned) [Example 64.13, (3R)-3-(3-(((2-(4-(1,1-Dimethylethyl)-1-cyclohexen-1-yl)-2′-fluoro-5′-(methyloxy)-1,1′-biphenyl-4-yl)methyl)oxy)phenyl)butanoic acid or (3S)-3-(3-(((2-(4-(1,1-dimethylethyl)-1-cyclohexen-1-yl)-2′-fluoro-5′-(methyloxy)-1,1′-biphenyl-4-yl)methyl)oxy)phenyl)butanoic acid]
0.1 to 1 µM | > 1 µM | COc1cccc(-c2ccc(COc3cccc(CCC(=O)O)c3)cc2OC(F)(F)F)c1 [Example 37, 3-[3-(3′-Methoxy-2-trifluoromethoxy-biphenyl-4-ylmethoxy)-phenyl]-propionic acid]
0.1 to 1 µM | 0.01 to 0.1 µM | CC1(C)CCC[C@@H]1c1cc(COc2cccc([C@@H](CC(=O)O)C3CC3)c2F)ccc1-c1cc(F)ccc1F (single isomer, unassigned) [Example 83.25]
0.1 to 1 µM | 1 to 10 µM | COc1ccc(F)c(-c2ccc(COc3cccc(C(C)CC(=O)O)c3)cc2C(C)(C)C)c1 (single isomer, unassigned) [Example 42, (3R)-3-(3-(((2-(1,1-Dimethylethyl)-2′-fluoro-5′-(methyloxy)-1,1′-biphenyl-4-yl)methyl)oxy)phenyl)butanoic acid or (3S)-3-(3-(((2-(1,1-dimethylethyl)-2′-fluoro-5′-(methyloxy)-1,1′-biphenyl-4-yl)methyl)oxy)phenyl)butanoic acid]

Structure (SMILES) | EC50 (GPR40 [1]) | EC50 (GPR40 [2])
CCC[C@H](CC(=O)O)c1cccc(OCc2ccc(-c3cc(OC)ccc3F)c([C@H]3CCCC3(C)C)c2)c1 (single isomer, unassigned) [Example 80.4] | 0.1 to 1 µM | < 0.01 µM
COc1ccc(F)c(-c2ccc(COc3cccc([C@@H](CC(=O)O)C4CC4)c3)cc2[C@H](OC)C(C)(C)C)c1 (single isomer, unassigned) [Example 66.24] | 1 to 10 µM | 0.1 to 1 µM
